In publication PMC10685318, “Trans-cyclosulfamidate mannose-configured cyclitol allows isoform-dependent inhibition of GH47 α-D-mannosidases through a bump–hole strategy” (Chemical Science, 2023):
Read-outs that look alike come from different tables or passages of the source.

Target: T1, MAN2C1 (Homo sapiens, UniProt Q9NTJ4)
T1 construct: expressed in transfected cells
T1 sequence (Q9NTJ4 1-1040): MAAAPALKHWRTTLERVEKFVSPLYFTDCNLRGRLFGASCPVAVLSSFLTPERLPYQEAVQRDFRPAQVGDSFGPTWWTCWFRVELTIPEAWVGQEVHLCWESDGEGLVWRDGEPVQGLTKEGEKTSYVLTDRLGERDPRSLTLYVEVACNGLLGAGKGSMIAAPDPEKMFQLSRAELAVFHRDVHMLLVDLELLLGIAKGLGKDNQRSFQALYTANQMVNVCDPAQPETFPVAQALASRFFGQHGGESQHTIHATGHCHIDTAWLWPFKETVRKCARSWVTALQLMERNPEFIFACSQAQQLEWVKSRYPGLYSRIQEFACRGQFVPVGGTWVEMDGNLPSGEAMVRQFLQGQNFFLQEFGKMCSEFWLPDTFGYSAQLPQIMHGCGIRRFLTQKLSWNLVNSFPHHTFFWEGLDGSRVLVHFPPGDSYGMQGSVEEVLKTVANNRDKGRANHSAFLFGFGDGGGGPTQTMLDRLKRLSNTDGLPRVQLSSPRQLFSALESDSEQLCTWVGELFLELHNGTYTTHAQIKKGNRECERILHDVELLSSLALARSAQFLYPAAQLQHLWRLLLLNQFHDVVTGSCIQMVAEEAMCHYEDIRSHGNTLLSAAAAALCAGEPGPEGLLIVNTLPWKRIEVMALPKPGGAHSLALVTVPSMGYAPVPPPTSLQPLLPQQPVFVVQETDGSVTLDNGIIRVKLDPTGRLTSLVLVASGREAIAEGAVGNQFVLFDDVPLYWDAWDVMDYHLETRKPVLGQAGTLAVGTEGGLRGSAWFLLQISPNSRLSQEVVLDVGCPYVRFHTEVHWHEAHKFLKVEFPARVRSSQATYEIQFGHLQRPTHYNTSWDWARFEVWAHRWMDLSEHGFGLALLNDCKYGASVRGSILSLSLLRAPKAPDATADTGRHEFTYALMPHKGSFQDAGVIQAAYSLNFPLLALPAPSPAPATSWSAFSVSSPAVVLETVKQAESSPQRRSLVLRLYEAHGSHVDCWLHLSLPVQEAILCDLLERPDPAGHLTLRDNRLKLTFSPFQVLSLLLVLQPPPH
Assay: 4-MU-α-man activity assay in overexpressed cell lysates
Type: biochemical

**Q.** How did the IC50 (Co2+ (cobalt as the metal ion), read-out: IC50 (apparent)) turn out when O=S1(=O)N[C@@H]2[C@@H](O)[C@@H](O)[C@H](O)[C@@H](CO)[C@H]2O1 [compound 6, 1,6-trans-manno-cyclosulfamidate] was run?
**A.** 3.5 ± 1.2 µM

**Q.** What about the IC50 (Zn2+ (buffer supplemented with 1 mM ZnCl2 instead of CoCl2)) of the same compound?
**A.** no IC50 value could be determined

**Q.** And the IC50 (Zn2+ (buffer supplemented with 1 mM ZnCl2 instead of CoCl2), read-out: IC50)?
**A.** > 1000 µM
